Drawing on BindingDB's records for doi:10.1080/14756360701546595 (University of Zimbabwe, 2008), this text covers IC50 for five compounds.

In the assay the target is T1, Glutathione S-transferase E2 (Anopheles gambiae, UniProt Q9GPL8).
T1 sequence (Q9GPL8 whole entry): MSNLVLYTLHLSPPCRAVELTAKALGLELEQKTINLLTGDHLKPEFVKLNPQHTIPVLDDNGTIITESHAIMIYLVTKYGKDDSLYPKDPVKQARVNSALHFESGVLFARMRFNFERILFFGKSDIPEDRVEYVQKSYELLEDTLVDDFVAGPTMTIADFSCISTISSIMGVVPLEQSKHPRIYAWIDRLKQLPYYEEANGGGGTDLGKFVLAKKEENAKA
The experiment in a line: GST Inhibition Assay. Particulars: pH 6.5; 30 °C. An excerpt:
A range of natural product were screened for inhibition of AgGSTE2. GST activity was monitored by measuring absorbance at 340 nm with time, using a SpectraMax 340 microplate spectrophotometer equipped with a kinetics mode from Molecular Devices, Sunnyvale, California, USA.

SMILES strings stand for the structures. pIC50: −log10 of the molar value.

In general, pIC50 refers to the IC50 on a negative log10 scale, so that one unit is a factor of ten. Higher therefore signals a low IC50.

The compound `CC(C)=CCCC1(C)C(CC=C(C)C)CC2(CC=C(C)C)C(=O)C(C(=O)c3ccc(O)c(O)c3)C(=O)C1(CC=C(C)C)C2=O` (stereo not given) [GGI] had a pIC50 of 5.32.
On to `O=Cc1occ2c(O)c3c(O)ccc(O)c3c(O)c12` [MR-13/4], for which the pIC50 was 5.37.
The compound `COc1cc(O)c(-c2c(C)cc(O)c3c2Cc2cccc(O)c2C3=O)c(O)c1C(C)=O` [Name not given] showed a pIC50 of 5.46.
Compound `C=Cc1c(OC=O)cc(O)c2c1OC(c1ccc(O)c(O)c1)C(O)C2` (stereo not given) [TRAL-1] had a pIC50 of 5.82.
As for `C=C(CC)C(=O)c1ccc(OCC(=O)O)c(Cl)c1Cl` [[2,3-dichloro-4-(2-methylidenebutanoyl)phenoxy]acetic acid], the pIC50 is 5.85.
